In experiment [1] the test system is MM.1S cells. As to conditions: cited from earlier work.
Experiment [2] deals with MDA-MB-231 cells. The experiment can be described thus: GRO-seq (global nuclear run-on), transcriptional response to JQ1. In kind it is cell-based, Human. As to conditions: 500 nM JQ1, 6 h vs 0.05% DMSO, FIG. 12K. As to the method: Cell culture. MDA-MB-231 breast cancer cells (HTB-26 ATCC) and MM.1S multiple myeloma cells were grown at 37° C. and 5% CO2. MDA-MB-231 cells were cultured in Dulbecco's Modified Eagle Medium (Thermo Fisher Sci.) supplemented with 10% fetal bovine serum. MM.1S cells were cultured in RPMI-1640 supplemented with 1% GlutaMAX (Thermo Fisher Sci.) and 10% fetal bovine serum. […] Drosophila S2 cells were cultured in Schneider's Drosophila Medium (Thermo Fisher Sci.) supplemented with 10% fetal bovine serum and 2 mM L-glutamine (Thermo Fisher Sci.), at ambient temperature in ambient CO2.
Functional perturbation of general enhancer activities. […] To quantify transcription activities in an unbiased manner, GRO-seq read densities were initially normalized using total uniquely-mapped read numbers to remove variations between libraries. To minimize the bias introduced by promoter pausing or gene length, only reads that were aligned within the 2 Kb region 1 Kb downstream from the TSS were selected to calculate the transcription activity. For multi-isoform genes, the transcript with highest read counts within the 2 Kb window was selected to represent the gene's transcription activity. Public datasets analyzed. The data of RNA Pol II ChIP-seq for MDA-MB-231 cells were obtained from European Genome-phenome Archive (www.ebi.ac.uk/ega). […]

Turning to `Cc1sc2c(c1C)C(c1ccc(Cl)cc1)=N[C@@H](CC(=O)OC(C)(C)C)c1nnc(C)n1-2` [JQ1], the “response of gene expression to JQ1: genes associated with at least one super-enhancer vs only typical enhancers” value in experiment [1] (GRID-seq inferred connectivity within 50 Kb range, same without range, FIG. 14E, F) is “more responsive”. In addition, the “response of gene expression to JQ1: genes associated with top 10% vs bottom 10% RNA-decorated enhancers” value in experiment [1] (genes within ±50 Kb of enhancers, FIG. 13E) was “more responsive”. Besides, the “transcriptional response to JQ1 (GRO-seq): genes associated with top 10% vs bottom 10% RNA-decorated enhancers” value in experiment [2] is “The same conclusions were reached”.

The record behind these values is patent US10984891B2, “Methods for global RNA-chromatin interactome discovery” (The Regents of the University of California, priority 2016, dated 2021).
